Data taken from patent publication US20220017861A1, “UREMIC VASCULOPATHY MODEL USING ENDOTHELIAL CELLS DERIVED FROM INDUCED PLURIPOTENT STEM CELLS AND UREMIC COMPLEX, AND USE THEREOF” (SAMSUNG LIFE PUBLIC WELFARE FOUNDATION, priority 2018, published 2022).
Structures can show the parent of a compound that is named as a salt.

Experiments:
Format in all cases: cell-based
[1] = test system: endothelial cells differentiated from induced pluripotent stem cells; assay: Apoptosis of endothelial cells (Caspase-Glo 3/7 assay); conditions: FIG. 7
Method: , apoptosis of endothelial cell was measured according to the manufactural instructions using the Caspase-Glo 3/7 assay systems kit (Promega, catalog number G8091), and the results are shown in FIG. 4.

[2] = test system: endothelial cells differentiated from induced pluripotent stem cells; assay: Tube formation ability of endothelial cells on Matrigel; conditions: 16 to 24 hours of incubation on Matrigel, FIGS. 8 and 9
Method: (§1) In order to evaluate the functional abnormality of endothelial cells that may form vascular structures, the tube formation ability was measured. After seeding endothelial cells into a 24 or 12-well plate applied with Matrigel (Corning, catalog number CB-40234). After 16 to 24 hours of incubation, the level of tube formation was compared and analyzed.
In order to confirm the reliability and effectiveness of the uremic vasculopathy endothelial cell model prepared by treating endothelial cells with the uremic toxin mixture of the present invention, the level of tube formation was measured to compare effects of the serum of ESKD patient undergoing hemodialysis and the uremic toxin mixture of the present invention by measuring the tube formation level.

[3] = test system: endothelial cells derived from normal control induced pluripotent stem cells; assay: Drug effect verification by tube formation in uremic vasculopathy endothelial cell model; conditions: cells exposed to uremic toxin mixture or ESKD patient serum, then treated with drug, FIG. 11
Method: as §1
In order to confirm whether the effect of the drug can be verified using the uremic vasculopathy endothelial cell model prepared by treating with the uremic toxin mixture of the present invention, the uremic toxin mixture of the present invention or ESKD patient's serum was applied to endothelial cells derived from normal control induced pluripotent stem cells. Then, SD-208 (TGF-β inhibitor) and losartan (angiotensin receptor blocker) were treated to measure the level of tube formation in order to examine respective effects. The endothelial cells' tube formation ability was measured and compared in the uremic toxin mixture of the present invention (UT-F, UT-H, uric acid 3 (UA 3)), serum of patients with chronic kidney disease (patient 2, patient 4), normal control serum (control 1) and cell culture medium alone (media only).

O=c1[nH]c(=O)c2[nH]c(=O)[nH]c2[nH]1 [uric acid, Uric acid]
apoptosis of endothelial cells ([1]; single uremic toxin at 1 mM): significantly promoted | tube formation ability of endothelial cells [2]: well maintained

NC(N)=O [urea, Urea]
apoptosis of endothelial cells ([1]; single uremic toxin at 50 mM): not significantly promoted

O=S(=O)(O)Oc1c[nH]c2ccccc12 [indoxyl sulfate, Indoxyl sulfate]
apoptosis of endothelial cells ([1]; single uremic toxin at 1 mM): not significantly promoted

Fc1ccc(Cl)cc1-c1nc(Nc2ccncc2)c2nccnc2n1 [SD-208]
inhibition of endothelial cell tube formation after drug treatment [3]: alleviated

CCCCc1nc(Cl)c(CO)n1Cc1ccc(-c2ccccc2-c2nn[nH]n2)cc1 [losartan]
inhibition of endothelial cell tube formation after drug treatment [3]: alleviated
